Measurements published in PubChem BioAssay AID179 (DTP/NCI, 2004).
pEC50, pIC50: −log10 of the molar value. Calls of active or inactive are those of the source.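 The calls were made as follows: active = compounds giving half or more protection of infected cells from virus-caused growth loss, again on retest; inactive = the rest.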 Where a SMILES comes first, the peptide text is derived from it. Bridges are numbered along the chain shown (N, C = ends). Roman numbers before positions name the chains, in order. The star is where a group is joined. Bz = O=C(c1ccccc1)*

Tested on: CEM cells HIV-1 protection, formazan growth assay
Experiment: NCI AIDS Antiviral Assay
Conditions: for pIC50: measured here: growth of uninfected CEM cells
Method: The ability of compounds to protect human CEM cells from HIV-1 infection is measured as a screen for new compounds capable of inhibiting the HIV virus. Five concentrations of drug were tested on uninfected and infected cells and cell growth was measured using a soluble formazan assay. […] Compounds that provided at least 50% protection were retested. Compounds that provided at least 50% protection on retest were listed as moderately active. Compounds that reproducibly provided 100% protection were listed as confirmed active. […] Note that the inability to provide protection could be due to toxicity.

SMILES	pEC50	pIC50	outcome
N#C/C(=C\c1ccc(F)cc1)C(=O)O	< 3.58	< 3.58	
COc1cc2c(cc1OC)C(=O)/C(=C/c1ccc(Cl)cc1)CC2	< 3.70	< 3.70	
O=C(Nc1cccc([N+](=O)[O-])c1)C(=O)C(C(=O)c1ccccc1F)C1OC(=O)C2C=CC=CC21 (stereo not given)	< 3.55	5.39	
C=C(C)COC(=O)C1CC2OC2CC1C(=O)OCC(=C)C (stereo not given)	< 3.70	3.78	
Nc1nc(Cl)cc(Nc2ccc3c(c2)CCC3)n1	< 3.70	4.65	
Cc1c2ccccc2nc(CSCc2ccccc2)[n+]1[O-]	< 3.70	3.79	
Oc1ccccc1CNCc1nc2ccccc2[nH]1	< 3.70	4.13	
Nc1ncc(CN2CCOCC2)c(-c2ccccc2O)n1	< 3.70	< 3.70	
COC(=O)[n+]1cc2c3cccc[n+]3c(N(C)C)n2c2ccccc21	< 3.70	4.78	
O=C(Nc1ccc(-c2cccs2)oc1=O)c1cnccn1	< 3.82	< 3.82	
CC(C)(C)NC(=O)CCC(CC(=O)NC(C)(C)C)S(=O)(=O)O (stereo not given)	< 3.70	< 3.70	
CCN(CCC#N)C(=O)Nc1ccccc1	< 3.70	< 3.70	
COC(=O)/C=C\C(C#N)(C#N)N=Cc1cccs1	< 5.70	6.41	
CCn1c2ccccc2c2ccc3c(c21)C(=O)C=CC3=O	< 4.58	< 4.58	
CCCCCCCCCCCC(=O)CC(=O)c1c(O)cccc1O	< 4.81	< 4.81	
Cc1nc2c(sc(=S)n2-c2ccccc2)c(=O)[nH]1	< 4.04	< 4.04	
Cc1nc2ccc(S(=O)(=O)NS(=O)(=O)c3ccc(-c4ccccc4)cc3)cc2c(=O)n1NS(=O)(=O)c1ccc(-c2ccccc2)cc1	< 3.70	3.77	

SMILES	pEC50	pIC50	outcome
COC(=O)C(=O)C(C(=O)C(=O)Nc1ccccc1OC)c1nc2ccc([N+](=O)[O-])cc2[nH]c1=O (stereo not given)	< 3.27	4.02	
O=[N+]([O-])c1ccccc1C1N2CCCCC2[C@@H]2c3[nH]c4ccccc4c3CCN12 (stereo not given in full)	< 4.73	< 4.73	
N#Cc1nc(CCN2C(=O)c3ccccc3C2=O)oc1N	< 3.70	< 3.70	
NC(N)=NCCS(=O)(=O)O	< 3.70	< 3.70	
NC(=O)C(=CNC(=S)N=Nc1c(O)[nH]c2ccccc12)C(N)=O	< 3.70	3.78	
CC(CCC(=O)O)[C@H]1CCC2[C@@H]3C(=O)C[C@@H]4CC(O)CC[C@]4(C)C3CC[C@@]21C (stereo not given in full)			inactive
COC(=O)c1c2c(cc3c1CC1(C3)Cc3cc4c(c(C(=O)OC)c3C1)CCC4)CCC2	< 3.70	< 3.70	
CC(O)C1(CNc2cc(Cl)nc(N)n2)CCC1 (stereo not given)	< 3.70	3.74	
Cc1nnc(Nc2ccc(Cl)cc2)o1	< 3.70	< 3.70	
CC(=O)CC(=O)Nc1ccccc1C(F)(F)F	< 3.69	< 3.69	
CN(C)CCNc1ccc(NCC[N+](C)(C)Cc2ccc([N+](=O)[O-])cc2)c2c1C(=O)c1c(O)ccc(O)c1C2=O	< 4.70	6.05	
OC(CCNC12CC3CC(CC(C3)C1)C2)c1ccccc1 (stereo not given)			inactive
O=[N+]([O-])c1cccc(S(=O)(=O)N2CCCC2)c1	< 3.70	3.78	
COC(=O)C(CSSCC(NC(=O)CNC(=O)c1ccccc1)C(=O)OC)NC(=O)CNC(=O)c1ccccc1 (stereo not drawn) (I: Bz-Gly-Cys-OMe / II: Bz-Gly-Cys-OMe; disulfide I:2-II:2; configuration not given here)	< 3.93	4.41	
COc1cc(/C=C2\C(=O)N(c3cccc([N+](=O)[O-])c3)C(c3ccccc3)S2(=O)=O)cc(OC)c1OC (stereo not given)			inactive
O=C1c2ccccc2N2OC3(N4CCOCC4)CCCC3C12c1ccccc1 (stereo not given)	< 5.27	< 5.27	
O=[N+]([O-])c1cc(-c2nnc(C34CC5CC(CC(C5)C3)C4)o2)cc([N+](=O)[O-])c1	< 3.70	< 3.70	
